Source: patent publication US20060229438A1, “Monoclonal antibody derived peptide inhibitors for mycobacterial dna gyrase” (priority 2002, published 2006)

Columns and labels:
[1] = target: DNA gyrase from ciprofloxacin resistant M. smegmatis mc^2155 strain (Mycolicibacterium smegmatis, UniProt A0QNE0+P48354); assay type: biochemical
[2] = tested on: DNA gyrase from ofloxacin resistant clinical isolate of M. tuberculosis (ICC-222)

O=C(O)c1cn(C2CC2)c2cc(N3CCNCC3)c(F)cc2c1=O [ciprofloxacin, reference compound]
susceptibility of the enzyme to ciprofloxacin [1]: showed resistance | IC50 ([1]; read-out: IC50 (no inhibition up to concentration)): > 1210 µM

B1: scFv:GyrA: engineered single chain antibody fragment of MsGyrA:C3, monovalent 30 kDa polypeptide, Seq. ID #2, encoded by pVNUHMscFv (protein)
scFv: AQVKLQQSGAELVRPGASVKLSCKASGYSFTVYYIYWVKQRPGQALEWIGEINPSNGGTNFNEKFKTKATLTVDKSTSTVYMQLSSLTSEDSAVYYCTRWGLRRGFAYWGQGTTVTVSSSGGGSGGGGSGGGGSDIELTQSPKSMSMSVGERVTLSCKASENVGTHVSWYQQRPEESPKLLIYGASNRYTGVPDRFTGSGSATDFTLTISNVQAEDLADYHCGQTYSYPFTFGLGTKLEIKRAAAGAPVPYPDPLEPRAA
concentration that completely inhibited DNA gyrase [2]: 10 nM
